Laboratory results as given in patent US6479493B1, “Methods for treatment of type I diabetes” (Cell Pathways, Inc., priority 2001, dated 2002).
Structures can show the parent of a compound that is named as a salt.

Legend:
[1] = tested on: rats; assay: seven-day dose-range finding study in rats; format: in vivo, rat; settings: 7 days
[2] = tested on: dogs; assay: 91-day oral study in dogs; format: in vivo, dog
[3] = tested on: rats; assay: 91-day long-term safety assessment study in rats; format: in vivo, rat
From the text: These changes were not associated with any gross clinical abnormality.

[4] = tested on: TNF-α secreted by TPA-induced U937 cells; assay: TNF-α immunoassay on media of TPA-treated U937 cells; format: cell-based; settings: cell culture media (FIG. 12)
Protocol: One function of macrophages is to modulate the activity of other inflammatory cells through various cytokine molecules.
TNF-α levels in the cell culture media were determined by using the TNF-α Immunoassay from R&D Systems (Cat. #DTA50) according to the manufacturer's protocol.

[5] = 91 days, highest dose group (300 mg/kg/day)

In the case of `CC1=C(CC(=O)NCc2ccccc2)c2cc(F)ccc2/C1=C\c1ccncc1` [Example 38, (Z)-5-Fluoro-2-methyl-(4-pyridylidene)-3-(N-benzyl)indenylacetamide Hydrochloride], the signs of toxicity ([1]; 50 mg/kg/day) is reported as “no observable signs of toxicity”, the treatment-related effects ([1]; 500 mg/kg/day) is reported as “limited to an increase in absolute and relative liver weights in female rats” and the treatment-related effects ([1]; 2000 mg/kg/day) is reported as “labored breathing and/or abnormal respiratory sounds, decreased weights gains and food consumption in male rats, and increased liver weights in female rats”. The “hematology, blood chemistry, microscopic pathology” value ([1]; any dose level (50, 500, 2000 mg/kg/day)) was “No hematological or blood chemistry changes nor any microscopic pathology changes”, the feces observation ([2]; 91 days, 150 and 300 mg/kg/day) was “Orange discoloration of the feces” and the “microscopic alterations (liver)” value ([2]; 91 days, highest dose group) was “no microscopic alterations”. The body weights [2, 5] was “Slightly lowered body weights”, the liver weights [2, 5] was “increased liver weights” and the “route of elimination (suggested by feces colour)” value ([2]; oral, 91 days) was “most of Compound 38 was being eliminated via the feces”. For the same compound, the toxicological effects overall ([2]; oral, 91 days, 50, 150 and 300 mg/kg/day) was “no toxicological effects”, the “clinical biochemistry and hematology” value ([3]; 91 days) was “no changes in clinical biochemistry and hematology were evident” and the “microscopic finding, follicular cells” value ([3]; 91 days, 500 mg/kg/day) was “follicular cell hypertrophy”. For the same compound, the “microscopic finding, kidneys” value ([3]; 91 days, 200 and 500 mg/kg/day) was “increase in accumulation of hyalin droplets in the kidneys”, the “microscopic finding, liver” value ([3]; 91 days, 200 and 500 mg/kg/day) was “slight hepatocellular hypertrophy” and the “liver and thyroid/parathyroid weights” value ([3]; 91 days, males and females at 200 and 500 mg/kg/day) was “dose-related trend to increased liver and thyroid/parathyroid weights”. The toxicological effects overall ([3]; oral, 91 days, 50, 200 and 500 mg/kg/day) was “did not produce any major toxicological effects” and the “level of TNF-α secreted” value [4] was “significantly reduced”.
